The target in assay [1] is T1, Lysosomal acid glucosylceramidase (Homo sapiens, UniProt P04062).
T1 sequence (P04062 whole entry): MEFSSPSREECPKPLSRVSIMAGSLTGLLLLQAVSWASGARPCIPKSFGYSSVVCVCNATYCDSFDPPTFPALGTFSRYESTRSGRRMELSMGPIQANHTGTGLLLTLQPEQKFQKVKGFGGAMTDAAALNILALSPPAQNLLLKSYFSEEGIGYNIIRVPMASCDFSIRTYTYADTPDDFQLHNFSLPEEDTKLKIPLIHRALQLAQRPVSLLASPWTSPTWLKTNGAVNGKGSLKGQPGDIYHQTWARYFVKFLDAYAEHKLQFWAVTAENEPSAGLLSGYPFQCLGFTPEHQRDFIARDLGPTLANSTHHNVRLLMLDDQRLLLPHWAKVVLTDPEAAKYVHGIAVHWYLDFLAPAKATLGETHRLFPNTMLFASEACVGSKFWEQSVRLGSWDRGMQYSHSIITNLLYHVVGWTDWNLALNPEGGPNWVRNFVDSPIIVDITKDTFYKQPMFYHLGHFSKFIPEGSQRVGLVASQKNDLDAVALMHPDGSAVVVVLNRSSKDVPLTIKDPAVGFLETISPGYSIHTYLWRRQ
Description: Inhibition of recombinant GBA1 preincubated with compound for 30 mins using 4-methylumbelliferyl-B-glucoside substrate by fluorimetric assay.

Assay [2] concerns the target T2, Ceramide glucosyltransferase (Mus musculus, UniProt O88693).
T2 sequence (O88693 whole entry): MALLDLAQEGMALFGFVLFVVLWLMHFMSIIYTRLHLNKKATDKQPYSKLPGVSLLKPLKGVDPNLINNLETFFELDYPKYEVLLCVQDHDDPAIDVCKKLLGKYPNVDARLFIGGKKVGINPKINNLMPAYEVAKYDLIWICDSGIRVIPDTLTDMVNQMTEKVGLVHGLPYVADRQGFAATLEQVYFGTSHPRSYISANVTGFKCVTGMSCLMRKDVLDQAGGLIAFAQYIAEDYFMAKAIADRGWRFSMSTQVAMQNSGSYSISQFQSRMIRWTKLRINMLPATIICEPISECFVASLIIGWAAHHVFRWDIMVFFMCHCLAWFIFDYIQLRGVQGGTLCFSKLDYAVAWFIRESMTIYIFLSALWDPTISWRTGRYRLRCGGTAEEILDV
As to the kind of experiment: Inhibition of glucosylceramide synthase in mouse RAW cells preincubated with compound for 15 mins by in-situ enzyme inhibition assay. It is filed as cell-based.

The target of another assay is T3, Beta-glucosidase (Homo sapiens, UniProt Q9HCG7).
T3 sequence (Q9HCG7 whole entry): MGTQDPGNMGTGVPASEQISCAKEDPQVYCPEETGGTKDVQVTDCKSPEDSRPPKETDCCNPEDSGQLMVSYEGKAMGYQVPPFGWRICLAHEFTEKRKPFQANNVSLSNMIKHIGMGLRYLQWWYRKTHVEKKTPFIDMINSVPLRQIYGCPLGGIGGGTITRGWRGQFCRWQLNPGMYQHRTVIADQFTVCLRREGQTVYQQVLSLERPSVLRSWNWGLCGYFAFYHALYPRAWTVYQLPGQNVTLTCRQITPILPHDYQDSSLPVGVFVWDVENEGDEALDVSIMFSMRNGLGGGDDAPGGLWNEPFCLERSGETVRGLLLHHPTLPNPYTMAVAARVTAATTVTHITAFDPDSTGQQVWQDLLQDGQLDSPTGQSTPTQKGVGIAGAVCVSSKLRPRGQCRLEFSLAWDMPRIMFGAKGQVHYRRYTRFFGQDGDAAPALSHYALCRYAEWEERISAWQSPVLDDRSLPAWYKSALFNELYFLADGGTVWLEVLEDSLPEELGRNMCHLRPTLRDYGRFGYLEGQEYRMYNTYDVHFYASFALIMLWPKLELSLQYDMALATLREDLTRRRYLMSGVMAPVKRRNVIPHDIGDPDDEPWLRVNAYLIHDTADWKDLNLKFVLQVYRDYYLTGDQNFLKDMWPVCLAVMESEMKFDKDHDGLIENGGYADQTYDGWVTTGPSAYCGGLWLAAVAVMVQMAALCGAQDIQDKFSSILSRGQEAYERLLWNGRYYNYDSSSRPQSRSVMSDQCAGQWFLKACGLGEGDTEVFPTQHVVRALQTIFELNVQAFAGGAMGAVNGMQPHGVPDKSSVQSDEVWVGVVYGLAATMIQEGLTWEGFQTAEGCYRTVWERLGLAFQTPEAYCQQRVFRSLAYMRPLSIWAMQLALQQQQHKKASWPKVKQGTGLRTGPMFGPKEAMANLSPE
Description: Inhibition of recombinant GBA2 preincubated with compound for 30 mins using 4-methylumbelliferyl-B-glucoside substrate by fluorimetric assay.

The target in a further assay is Sucrase-isomaltase (Mus musculus, UniProt B5THE3). As to the kind of experiment: Inhibition of sucrase in mouse intestinal […] by glucose release assay.

The structures appear in SMILES notation. Some results are limits rather than exact numbers.

Chain of Sucrase-isomaltase (B5THE3 whole entry): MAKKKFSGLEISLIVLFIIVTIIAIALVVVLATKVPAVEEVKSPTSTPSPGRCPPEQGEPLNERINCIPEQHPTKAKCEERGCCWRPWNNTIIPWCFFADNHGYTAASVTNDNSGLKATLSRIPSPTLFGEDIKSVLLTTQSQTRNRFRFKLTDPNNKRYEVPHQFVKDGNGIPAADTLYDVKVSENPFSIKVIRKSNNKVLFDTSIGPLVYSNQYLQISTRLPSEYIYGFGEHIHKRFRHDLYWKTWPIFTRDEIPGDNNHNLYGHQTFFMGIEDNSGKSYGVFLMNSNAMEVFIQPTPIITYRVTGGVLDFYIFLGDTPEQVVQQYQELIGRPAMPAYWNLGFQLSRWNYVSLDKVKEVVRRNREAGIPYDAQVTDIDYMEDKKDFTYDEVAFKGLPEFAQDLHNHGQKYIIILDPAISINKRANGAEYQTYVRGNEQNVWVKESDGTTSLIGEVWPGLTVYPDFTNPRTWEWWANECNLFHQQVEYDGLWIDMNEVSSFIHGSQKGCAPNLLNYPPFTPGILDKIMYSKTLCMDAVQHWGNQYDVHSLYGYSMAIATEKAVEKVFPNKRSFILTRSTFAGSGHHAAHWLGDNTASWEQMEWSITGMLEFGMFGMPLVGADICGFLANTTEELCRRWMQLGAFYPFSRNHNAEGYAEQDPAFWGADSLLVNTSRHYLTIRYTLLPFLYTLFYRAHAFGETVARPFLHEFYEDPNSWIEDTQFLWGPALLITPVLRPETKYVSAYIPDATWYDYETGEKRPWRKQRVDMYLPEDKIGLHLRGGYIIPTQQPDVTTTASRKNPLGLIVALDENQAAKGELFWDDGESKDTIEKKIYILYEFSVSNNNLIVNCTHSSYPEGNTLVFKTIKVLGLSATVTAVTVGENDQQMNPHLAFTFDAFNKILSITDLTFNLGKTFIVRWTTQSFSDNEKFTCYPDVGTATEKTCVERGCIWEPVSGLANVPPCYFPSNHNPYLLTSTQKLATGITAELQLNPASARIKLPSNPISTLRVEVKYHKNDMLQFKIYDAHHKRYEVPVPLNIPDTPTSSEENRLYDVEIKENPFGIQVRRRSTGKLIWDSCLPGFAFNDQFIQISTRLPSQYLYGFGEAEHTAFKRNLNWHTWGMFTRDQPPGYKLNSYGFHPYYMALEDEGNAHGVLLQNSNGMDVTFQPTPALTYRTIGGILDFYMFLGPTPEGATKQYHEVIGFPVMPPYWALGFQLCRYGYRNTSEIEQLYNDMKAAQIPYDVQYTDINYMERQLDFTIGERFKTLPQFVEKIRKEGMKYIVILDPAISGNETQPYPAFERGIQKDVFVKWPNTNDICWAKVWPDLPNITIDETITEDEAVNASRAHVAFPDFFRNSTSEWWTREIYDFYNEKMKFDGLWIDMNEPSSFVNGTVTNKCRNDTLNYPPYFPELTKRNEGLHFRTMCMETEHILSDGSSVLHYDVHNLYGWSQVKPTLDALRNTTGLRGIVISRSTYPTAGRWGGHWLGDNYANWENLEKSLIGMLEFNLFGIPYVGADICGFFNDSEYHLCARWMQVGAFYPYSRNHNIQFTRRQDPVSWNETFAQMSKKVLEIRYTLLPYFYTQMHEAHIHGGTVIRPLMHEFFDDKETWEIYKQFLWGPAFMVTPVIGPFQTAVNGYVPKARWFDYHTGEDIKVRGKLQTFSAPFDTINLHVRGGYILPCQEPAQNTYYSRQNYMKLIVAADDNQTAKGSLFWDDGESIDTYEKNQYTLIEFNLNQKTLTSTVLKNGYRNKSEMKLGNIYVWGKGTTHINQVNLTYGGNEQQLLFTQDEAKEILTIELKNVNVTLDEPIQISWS

Consider `CCCCCN1C[C@H](O)[C@@H](O)[C@H](O)[C@H]1CO`, for which the IC50 is 500 µM in assay [1], more than 20 µM in assay [2], 0.4 µM at Beta-glucosidase and 2 µM at Sucrase-isomaltase.
For `CCCCCCN1C[C@H](O)[C@@H](O)[C@H](O)[C@H]1CO` the same measures were 80 µM, more than 20 µM, 0.11 µM and 1 µM.
Take `CCCCCCCN1C[C@H](O)[C@@H](O)[C@H](O)[C@H]1CO`: the IC50 in assay [1] turned out to be 18.5 µM; in assay [2], 40 µM; at Beta-glucosidase, 0.045 µM.
Turning to `CCCCCCCCN1C[C@H](O)[C@@H](O)[C@H](O)[C@H]1CO`, the IC50 worked out at 4 µM in assay [1], 4 µM in assay [2], 0.02 µM on Beta-glucosidase and 0.75 µM against Sucrase-isomaltase.
Regarding `CCCCCN1C[C@H](O)[C@@H](O)[C@H](O)[C@@H]1CO`, the IC50 in assay [1] is more than 1000 µM; in assay [2], 15 µM; at Beta-glucosidase, 0.25 µM; against Sucrase-isomaltase it was more than 1000 µM.
As for `CCCCCCN1C[C@H](O)[C@@H](O)[C@H](O)[C@@H]1CO`, the IC50 in assay [1] was more than 1000 µM; in assay [2], 40 µM; on Beta-glucosidase it was 0.14 µM; against Sucrase-isomaltase it was 600 µM.
For the molecule `CCCCCCCN1C[C@H](O)[C@@H](O)[C@H](O)[C@@H]1CO`, the IC50 in assay [1] was 700 µM; in assay [2] it was 4 µM; at Beta-glucosidase, 0.04 µM.
Consider `CCCCCCCCN1C[C@H](O)[C@@H](O)[C@H](O)[C@@H]1CO`, for which the IC50 in assay [1] turned out to be 25 µM; in assay [2], 4 µM; on Beta-glucosidase it was 0.02 µM; at Sucrase-isomaltase, 60 µM.
Take `CCCCCCCCCN1C[C@H](O)[C@@H](O)[C@H](O)[C@@H]1CO`: at Sucrase-isomaltase, the IC50 was more than 1000 µM.
In the case of `CCCCOCCCCCN1C[C@H](O)[C@@H](O)[C@H](O)[C@H]1CO`, the IC50 in assay [1] amounted to 30 µM; in assay [2], 4 µM; at Beta-glucosidase it was 0.06 µM; on Sucrase-isomaltase it was 2 µM.
Consider `CCCCCOCCCCCN1C[C@H](O)[C@@H](O)[C@H](O)[C@H]1CO`, for which the figures for the IC50 (in assay [1]; in assay [2]; on Beta-glucosidase) were 705 µM, 2 µM and 0.04 µM, respectively.
On to `CCCCCCOCCCCCN1C[C@H](O)[C@@H](O)[C@H](O)[C@H]1CO`, for which the IC50 in assay [2] is 1 µM; on Beta-glucosidase, 0.008 µM.
Consider `CCCCCCCOCCCCCN1C[C@H](O)[C@@H](O)[C@H](O)[C@H]1CO`, for which the IC50 in assay [1] was 1.75 µM; in assay [2] it was 0.3 µM; at Beta-glucosidase, 0.015 µM; on Sucrase-isomaltase, 1 µM.
On the same counts, the results for `CCCCCCCCOCCCCCN1C[C@H](O)[C@@H](O)[C@H](O)[C@H]1CO` are 0.5 µM, 0.2 µM, 0.01 µM and 1 µM.
In the case of `CCCCCCCCCOCCCCCN1C[C@H](O)[C@@H](O)[C@H](O)[C@H]1CO`, in assay [2], the IC50 stood at 0.1 µM.
On to `CCCCOCCCCCN1C[C@H](O)[C@@H](O)[C@H](O)[C@@H]1CO`, for which the IC50 is more than 1000 µM in assay [1], 2 µM in assay [2], 0.09 µM on Beta-glucosidase and more than 1000 µM against Sucrase-isomaltase.
For `CCCCCOCCCCCN1C[C@H](O)[C@@H](O)[C@H](O)[C@@H]1CO`, the IC50 in assay [1] amounted to 100 µM; in assay [2] it was 0.15 µM; at Beta-glucosidase it was 0.015 µM.
In the case of `CCCCCCOCCCCCN1C[C@H](O)[C@@H](O)[C@H](O)[C@@H]1CO`, the IC50 in assay [2] stood at 0.1 µM; at Beta-glucosidase it was 0.025 µM.
With `CCCCCCCOCCCCCN1C[C@H](O)[C@@H](O)[C@H](O)[C@@H]1CO`, the IC50 in assay [1] was 40 µM; in assay [2] it was 0.05 µM; on Beta-glucosidase, 0.015 µM; on Sucrase-isomaltase, more than 1000 µM.
On to `CCCCCCCCOCCCCCN1C[C@H](O)[C@@H](O)[C@H](O)[C@@H]1CO`, for which the IC50 in assay [1] is 15 µM; in assay [2], 0.05 µM; on Beta-glucosidase it was 0.015 µM; against Sucrase-isomaltase, more than 1000 µM.
As for `CCCCCCCCCOCCCCCN1C[C@H](O)[C@@H](O)[C@H](O)[C@@H]1CO`, the IC50 in assay [2] was less than 0.05 µM.
As for `CCCCCCCCCN1C[C@H](O)[C@@H](O)[C@H](O)[C@H]1CO`, the midpoint of inhibition on Sucrase-isomaltase, the IC50, lay at 0.4 µM.
